According to patent publication US20220180963A1, “METHOD FOR SELECTING PATIENT SPECIFIC THERAPY” (YISSUM RESEARCH DEVELOPMENT COMPANY OF THE HEBREW …, priority 2018, published 2022):

Tests used:
Format in all cases: cell-based
MCF7 cells = experiment: Survival of MCF7 cells after drug treatment (methylene blue); settings: maximal killing, FIG. 14H
Experimental: Schematic figures of each unbalanced process are shown. […] For each cell line the combination of drugs predicted to target the complete unbalanced signaling signature was tested (marked with an asterix), as well as combinations that were predicted to only partially target the unbalanced signaling flux, each drug alone and taxol. […] Stain-free imaging was used to ensure equal loading.
Indeed, 4-OHT killed only up to 50% of the cells (FIG. 14H). […] Similar to the case in MDA468 cells, the double combination consisting of T and LY was expected to target all unbalanced processes in these cells, however since there are 4 distinct unbalanced processes that need to be targeted, addition of a third drug is apparently necessary to enhance the effect (FIG. 14G-I).

MDA-MB-231 cells = experiment: Survival of MDA-MB-231 cells after drug treatment (methylene blue); settings: FIG. 14B; for killing / survival of MDA231 cells: methylene blue survival
From the text: (§1) FIG. 14A-I. Experimental validation of the approach (14A, 14D, 14G) Diagrams of signaling signatures of MDA-MB-231, MDA-MB-468 and MCF7 cells, according to SA based analysis. Schematic figures of each unbalanced process are shown. Drug predictions are indicated for each cell line, including the processes that they are predicted to target. (14B, 14E, 14H) Bar charts of survival rates in response to different treatments (as measured by methylene blue). For each cell line the combination of drugs predicted to target the complete unbalanced signaling signature was tested (marked with an asterix), as well as combinations that were predicted to only partially target the unbalanced signaling flux, each drug alone and taxol. For MDA468 a triple combination was tested as well (marked with two asterix signs, shown in the inset in FIG. 14E). […] Stain-free imaging was used to ensure equal loading. […] Bar chart inserts show quantified relative expression of the investigated protein.
To validate the approach, we analyzed a dataset comprising RPPA measurements from 10 cell lines, including breast, ovarian, and oesophageal cancer, and assigned a barcode and drug combinations to each cell line. The predictions were made such that for each cell line, at least one protein hub from every active unbalanced process will be inhibited, aiming to collapse the sample-specific altered signaling network. Three breast cancer cell lines were chosen for experimental validation: MDA-MB-231 (MD231), MDA-MB-468 (MD468), and MCF7. The two formers represent triple negative breast cancer (TNBC) against which no targeted therapy exists in clinics today. TNBC is often treated with non-specific chemotherapy, such as taxol^1. MCF7 represent luminal type A breast cancer, routinely treated with the ERα inhibitor, tamoxifen, and in some cases chemotherapy such as taxanes.

MDA-MB-468 cells = experiment: Survival of MDA-MB-468 cells after drug treatment (methylene blue); settings: maximal killing, FIG. 14E
From the text: as §1
To validate the approach, we analyzed a dataset comprising RPPA measurements from 10 cell lines, including breast, ovarian, and oesophageal cancer, and assigned a barcode and drug combinations to each cell line. The predictions were made such that for each cell line, at least one protein hub from every active unbalanced process will be inhibited, aiming to collapse the sample-specific altered signaling network. […]

Row | Molecule | cells killed (MCF7 cells) | killing / survival of MDA231 cells (MDA-MB-231 cells) | concentration at which efficacy of the treatment plateaued (MDA-MB-231 cells) [nM] | cells killed (MDA-MB-468 cells) [%]
1 | 4-hydroxy tamoxifen [4-OHT] | up to 50% | – | – | –
2 | C#Cc1cccc(Nc2ncnc3cc(OCCOC)c(OCCOC)cc23)c1 [erlotinib] | – | no effect | – | –
3 | CC(=O)O[C@H]1C(=O)[C@@]2(C)[C@H]([C@H](OC(=O)c3ccccc3)[C@]3(O)C[C@H](OC(=O)[C@H](O)[C@@H](NC(=O)c4ccccc4)c4ccccc4)C(C)=C1C3(C)C)[C@]1(OC(C)=O)CO[C@@H]1C[C@@H]2O [taxol] | – | efficiently killed | 100 | ~80
4 | CC(=O)Nc1cccc(-n2c(=O)n(C3CC3)c(=O)c3c(Nc4ccc(I)cc4F)n(C)c(=O)c(C)c32)c1 [trametinib] | – | – | 100 | –
